Each structure is given as a SMILES string. “And” between values parts separate entries of the source, which are not always exact repeats. Equal values may be shown once.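 Step 1: Grow cells in 96-well plates. Step 2: Expose to compound for 48 hours at 5 concentrations. Step 3: Interpolate endpoints linearly; if unreached, use highest concentration. The concentration for 50% growth inhibition is given as GI50. TGI: concentration producing complete growth inhibition.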 A value given as a limit tells only on which side of the number the result lay.

Among the test systems are DU-145 prostate; HOP-92 NSCLC; HS 578T breast; KM12 colon; NCI-H460 lung; OVCAR-3 ovarian; OVCAR-5 ovarian; RPMI-8226 leukemia; SF-295 CNS; SF-539 CNS.
Common to all, as to assay: NCI-60 cell line screen, 48 h

`O=C1NC(=O)C(c2ccc(Cl)cc2)=C1Nc1ccc(Cl)c(C(=O)O)c1`: the GI50 with DU-145 prostate, in the assay with HOP-92 NSCLC, in the assay on HS 578T breast, in the assay on KM12 colon, in the assay with NCI-H460 lung and in the assay with OVCAR-3 ovarian was more than 25 µM in each case. Moreover, the GI50 with OVCAR-5 ovarian, in the assay with RPMI-8226 leukemia, with SF-295 CNS and in the assay with SF-539 CNS was more than 25 µM throughout. In addition, the TGI in the assay on DU-145 prostate, in the assay on HOP-92 NSCLC, with HS 578T breast, with KM12 colon, in the assay with NCI-H460 lung and in the assay on OVCAR-3 ovarian was more than 25 µM each time. Also, the TGI in the assay with OVCAR-5 ovarian, in the assay on RPMI-8226 leukemia, in the assay on SF-295 CNS and in the assay with SF-539 CNS was more than 25 µM each time.

Turning to `C[n+]1c2ccccc2c(Nc2ccc(NS(=O)(=O)CCCCN=C(N)N)cc2)c2ccc(N)cc21`, the GI50 was 0.163 µM in the assay with DU-145 prostate; 1.92 µM with HOP-92 NSCLC; 2.79 µM in the assay on HS 578T breast; 3.5 µM in the assay on KM12 colon; 10.2 µM with OVCAR-3 ovarian; 41.8 µM with OVCAR-5 ovarian. Moreover, the GI50 in the assay on RPMI-8226 leukemia is 1.43 µM; in the assay on SF-295 CNS it was 0.0785 µM; with SF-539 CNS, 3.37 µM. The TGI in the assay on DU-145 prostate is 66.4 µM; in the assay with HOP-92 NSCLC it was 52.9 µM; in the assay on HS 578T breast it was 52.3 µM; with KM12 colon, more than 79.1 µM; in the assay with NCI-H460 lung, 12.1 µM; with OVCAR-3 ovarian it was more than 80.2 µM. The TGI with OVCAR-5 ovarian is more than 100 µM; in the assay on RPMI-8226 leukemia, 23.3 µM; in the assay on SF-295 CNS, more than 100 µM; in the assay on SF-539 CNS, more than 100 µM.

For `O=C(/C=C/c1cccc([N+](=O)[O-])c1)c1ccc(O)c(CN2CCN(c3cc4c(cc3F)c(=O)c(C(=O)O)cn4C3CC3)CC2)c1`, the GI50 in the assay with DU-145 prostate is 1.41 µM; in the assay on HOP-92 NSCLC, 2.17 µM; in the assay on HS 578T breast, 2.43 µM; in the assay with KM12 colon, 1.33 µM; in the assay with NCI-H460 lung, 3.43 µM; in the assay on OVCAR-3 ovarian, 1.77 µM. The GI50 is 1.75 µM in the assay with OVCAR-5 ovarian, 0.418 µM with RPMI-8226 leukemia, 1.88 µM in the assay with SF-295 CNS and 1.19 µM in the assay with SF-539 CNS. Further, the TGI with DU-145 prostate was 2.74 µM; in the assay with HOP-92 NSCLC, 9.97 µM; with HS 578T breast it was 7.11 µM; with KM12 colon, 3.4 µM; with NCI-H460 lung, 19.3 µM; with OVCAR-3 ovarian it was 3.41 µM. The TGI in the assay with OVCAR-5 ovarian was found to be 3.35 µM; with RPMI-8226 leukemia, 2.82 µM; with SF-295 CNS it was 3.9 µM; with SF-539 CNS, 2.47 µM.

For the molecule `O=CC(Br)C(Br)c1ccccc1` (stereo not given), the GI50 with DU-145 prostate was 2.26 µM; in the assay with HOP-92 NSCLC, 1.52 µM; with HS 578T breast, 8.81 µM; in the assay on KM12 colon, 12.6 µM; with NCI-H460 lung it was 14.5 µM; in the assay on OVCAR-3 ovarian it was 1.32 µM. In addition, the GI50 in the assay with OVCAR-5 ovarian was 4.5 µM; with RPMI-8226 leukemia, 2.14 µM; with SF-295 CNS, 12.8 µM; with SF-539 CNS, 1.87 µM. For the same molecule, the TGI in the assay with DU-145 prostate worked out at 5.74 µM; with HOP-92 NSCLC, 2.89 µM; in the assay with HS 578T breast, 43.9 µM; with KM12 colon it was 26 µM; with NCI-H460 lung it was 31.2 µM; with OVCAR-3 ovarian it was 2.67 µM. Also, the TGI in the assay on OVCAR-5 ovarian is 13.2 µM; with RPMI-8226 leukemia, 5.39 µM; with SF-295 CNS, 27.7 µM; in the assay on SF-539 CNS, 4.36 µM.

`O=C(Nc1ccc2[nH]c(C(=O)N3CC(CCl)c4c3cc([N+](=O)[O-])c3ccccc43)cc2c1)c1cc2ccccc2o1` (stereo not given): the GI50 with DU-145 prostate was more than 1100 µM; in the assay on HOP-92 NSCLC it was more than 1100 µM; with HS 578T breast it was more than 1100 µM; in the assay on KM12 colon, more than 1100 µM; in the assay on NCI-H460 lung it was 21 µM; in the assay with OVCAR-3 ovarian, more than 1100 µM. In addition, the GI50 with OVCAR-5 ovarian and with RPMI-8226 leukemia was more than 1100 µM throughout. The TGI in the assay on DU-145 prostate, with HOP-92 NSCLC, in the assay on HS 578T breast, in the assay on KM12 colon, in the assay with NCI-H460 lung and in the assay with OVCAR-3 ovarian was more than 1100 µM each time. Also, the TGI in the assay with OVCAR-5 ovarian, in the assay on RPMI-8226 leukemia, in the assay on SF-295 CNS and in the assay with SF-539 CNS was more than 1100 µM throughout.

Take `CN1CCN(C(=O)c2c(NC(=O)NS(=O)(=O)c3ccccc3)sc3c2CCCCC3)CC1`: the GI50 with DU-145 prostate was 41 µM; in the assay on HOP-92 NSCLC, 27.1 µM; in the assay on HS 578T breast, 40.3 µM; in the assay on KM12 colon, 29.3 µM; with NCI-H460 lung, 51 µM; with OVCAR-3 ovarian, 39.6 µM. Besides, the GI50 was 76.3 µM with OVCAR-5 ovarian, 21.8 µM with RPMI-8226 leukemia, 57.2 µM in the assay with SF-295 CNS and 29.7 µM in the assay with SF-539 CNS. The TGI was more than 100 µM in the assay on DU-145 prostate; more than 100 µM in the assay with HOP-92 NSCLC; more than 100 µM in the assay on HS 578T breast; 80.1 µM with KM12 colon; more than 100 µM with NCI-H460 lung; more than 100 µM in the assay on OVCAR-3 ovarian. In addition, the TGI is more than 100 µM in the assay with OVCAR-5 ovarian, 64.8 µM with RPMI-8226 leukemia, more than 100 µM in the assay with SF-295 CNS and 69.9 µM in the assay with SF-539 CNS.

In the case of `CC(=O)OCc1ccc(O)c(C=O)c1`, the TGI in the assay with DU-145 prostate, in the assay on HOP-92 NSCLC, in the assay on HS 578T breast, in the assay with KM12 colon, in the assay on NCI-H460 lung and in the assay on OVCAR-3 ovarian was more than 100 µM each time. Moreover, the TGI in the assay with OVCAR-5 ovarian, with RPMI-8226 leukemia, with SF-295 CNS and with SF-539 CNS was more than 100 µM throughout.

Turning to `CC(=O)OC1CC[C@@]2(C)C(CC[C@]3(C)C2CC=C2[C@@H]4CC(C)(C)CCC4(C)CCC23C)[C@@]1(C)C(=O)O` (stereo not given in full), the TGI in the assay on DU-145 prostate is 46 µM; in the assay with HOP-92 NSCLC, 49.9 µM; in the assay with HS 578T breast it was 45.3 µM; in the assay on KM12 colon it was 52.3 µM; in the assay with NCI-H460 lung, 37 µM; in the assay on OVCAR-3 ovarian, 37.7 µM. In addition, the TGI is 47.5 µM in the assay on OVCAR-5 ovarian, 58.1 µM in the assay with RPMI-8226 leukemia, 51.3 µM in the assay on SF-295 CNS and 50.7 µM in the assay with SF-539 CNS.

Turning to `NC(=S)N/N=C/c1ccc(O)cn1`, the TGI in the assay on DU-145 prostate was 314 µM; in the assay with HOP-92 NSCLC, more than 1300 µM; in the assay with HS 578T breast, more than 1500 µM; in the assay on KM12 colon it was more than 1500 µM; with NCI-H460 lung it was 595 µM; in the assay on OVCAR-3 ovarian, > 1500 µM and 240 µM. The TGI is > 1500 µM and 928 µM in the assay with OVCAR-5 ovarian; > 1500 µM and 662 µM in the assay with RPMI-8226 leukemia; 113 µM and 111 µM in the assay with SF-295 CNS; 23.6 µM and 10.9 µM and 17.2 µM with SF-539 CNS. The GI50 in the assay with HOP-92 NSCLC was 6.73 µM; in the assay with KM12 colon, 35 µM; in the assay with NCI-H460 lung, 29.1 µM; in the assay on OVCAR-3 ovarian it was 19.9 µM and 5.16 µM; with OVCAR-5 ovarian, 30.2 µM and 34.8 µM; in the assay on RPMI-8226 leukemia, 22.3 µM and 6.64 µM. Moreover, the GI50 was 33.7 µM and 31.7 µM in the assay on SF-295 CNS; 4.27 µM and 2.77 µM with SF-539 CNS.
